Reference: patent publication US4680382A, “Analogues of actinomycin D” (priority 1986, dated 1987)

Key:
P388 cells [1] = test: Inhibition of DNA synthesis (methyl-[3H]thymidine incorporation) in P388 cells; type: cell-based, murine; conditions: 50% reduction in 1 hr of methyl-[3H]thymidine incorporation, read-out: IC50 DNA synth
Protocol: (§1) Experiments for inhibition of nucleic acid synthesis in tumor cells in vitro were carried out with P388 tumor cells, details of which were reported by Sengupta et al, J. Med. Chem., 18, 1175 (1975). […] AMD-OZLs inhibit either process with equal activity and with the potency of its metabolite 7-hydroxy-AMD.
^c IC50 (DNA) = concentration of inhibitor in μM required to
cause 50% reduction (in 1 hr) in methyl[^3 H]thymidine incorporation
into acid precipitable material with use of P388 cells.

[2] = tested on: CCRF-CEM human lymphoblastic leukemic cells; test: In vitro cytotoxicity against CCRF-CEM cells; type: cell-based; conditions: 48 hr
Protocol: ^a Human lymphoblastic leukemic cells.
The analogues were tested for their cytotoxicity against tumor cells (time, 48 hr). […] This may be associated with the initial microsomal transformation of the "reverse" analogues to "symmetrical" analogue and/or other alternate bioactive forms (e.g., free-radicals, O2^-), followed by deactivation via formation of conjugates and facile elimination of these from the host. The "reverse" analogues show reduced toxicity in vivo and also the tritiated "reverse" 7a is metabolized in vitro.

[3] = tested on: P388 lymphocytic leukemia; test: In vivo antitumor activity against P388 leukemia; parameters: species or system BDF1 mice
Protocol: The analogues were tested for their antitumor activities in P388 lymphocytic leukemia in male BDF1 mice. The tumor was implanted intraperitoneally (ip) with 10^6 cells. The drugs were also administered ip once daily on days 1, 5 and 9, beginning 1 day after tumor transplantation. Analogues were tested over a range of doses, but only the optimal nontoxic doses are listed.
^a 10^6 P388 cells implanted ip on day 0 into groups of eight
BDF1 male mice. Drugs administered ip. MST (range), median survival
time in days (range of individual animal deaths); % ILS, percent increase
in life span, calculated 100(T/C - 1), where T and C are median survival
times of treated and control animals; surv, number of surviving mice/tota

P388/ADR = test: In vivo activity against P388/adriamycin-resistant leukemia; parameters: species or system BDF1 mice
Protocol: (§2) ^a Male BDF1 mice inoculated ip: 10^6 cells inoculum, day 0.
(§3) Drugs administered in 10% dimethyl sulfoxidesaline on days 1, 5 and 9. %
(§4) ILS = percent increase in life span. Fractions in parentheses = tumorfree
(§5) survivors/total on day 60. P388/S (adriamycin sensitive) and P388/ADR
(§6) (adriamycin resistant) tumors were evaluated in the same experiment with […]

P388 cells [4] = test: Inhibition of RNA synthesis (2-[14C]uridine incorporation) in P388 cells; type: cell-based, murine
Protocol: as §1
^b IC50 (RNA) = concentration of inhibitor in μM required to
cause 50% reduction (in 1 hr) in 2[^14 C]uridine incorporation into
acid precipitable material with use of P388 cells.

[5] = Maximum tolerated dose (LD10) in tumor-free BDF1 male mice; type: in vivo; conditions: lethal dose for 10% normal BDF1 male mice, 21 days (LD10); ip days 1, 5 and 9
Protocol: (§7) These analogues were also tested in tumor-free BDF1 male mice for determination of their MTD values (Table VIII). The animals (18-22 g) were given a broad range of doses of drugs in 5% dimethyl sulfoxide-saline on days 1, 5 and 9. Drugs were administered ip and the maximum tolerated doses of agents which caused death in only 10% of the tested animals in 21 days (i.e., LD10) were recorded as MTD. […] However, the MED values of 7-hydroxy-AMD and its precursor AMD-OZL 10a are high and are seven to tenfold of the MED values of 4a and 8a. On the basis of these MED values, the therapeutic indices of 8a and 4a are 70 and 96. The therapeutic index of 2a is 13, of 10a 10, and of AMD only 4.
^c MTD (maximum tolerated dose) is the lethal dose
(milligram/kilogram) for 10% normal BDF1 male mice (18-22 g); animal
calculated from a plot of logdose vs. percent mortality.

B16 melanoma = test: In vivo antitumor activity against B16 melanoma; parameters: species or system BDF1 mice
Protocol: AMD-OZL analogues 9a and 10a were about as active as AMD and 7-hydroxy-AMD. The potencies of these analogues are reduced in comparison to that of AMD; their optimal doses were higher than that of AMD.
^a 0.2 mL of 1:5 (weight/volume) brei of B16 melanoma implanted
ip on day 0 in groups of nine BDF1 mice. Drugs administered ip.
^b MST (range) median survival time in days (range of individual
^c % ILS (surv), percent increase in lifespan (survivors on day

P388/S = test: In vivo activity against P388/S (adriamycin sensitive) leukemia, Table VII; parameters: species or system BDF1 mice
Protocol: as §2, §3, §4, §5, §6

P388 Leukemia = test: Minimum effective dose and therapeutic index vs. P388 leukemia; type: in vivo; conditions: dose giving 45% increase in life span in P388 tumor bearing mice; ip days 1, 5 and 9
Protocol: as §7
^a Drugs administered ip once on days 1, 5 and 9 starting 1 day after
tumor implantation. Determinations were made from analysis of plotted
^b MED (minimum effective dose) is the dose (milligram/kilogram)
providing an increase in life span of 45% over control in P388 tumor

**Q.** Which results are given for `Cc1c2oc3c(C)c4oc(-c5ccccc5)nc4c(C(=O)NC4C(=O)NC(C(C)C)C(=O)N5CCCC5C(=O)N(C)CC(=O)N(C)C(C(C)C)C(=O)OC4C)c3nc-2c(C(=O)NC2C(=O)NC(C(C)C)C(=O)N3CCCC3C(=O)N(C)CC(=O)N(C)C(C(C)C)C(=O)OC2C)cc1=O` (stereo not shown) [10a, 2-Phenyl-AMD--OZL]?
**A.** IC50 (P388 cells [1]): 5.7 µM; in vitro (CCRF-CEM) ID50 [2]: 0.5 µM; surv (surviving mice/total mice at 60 days) ([3]; P388, at optimal dose): 2/8; % ILS ([3]; P388, at optimal dose, 100(T/C - 1)): 186%; MST (range) ([3]; P388, at optimal dose, control 11.0 (9-12)): 31.5 (29-57) days; optimal dose ([3]; P388, ip, days 1, 5 and 9, optimal nontoxic dose): 1000.0 μg/kg per inj; P388/ADR % ILS (P388/ADR; at optimal dose): 88%; P388/ADR optimal dose (P388/ADR; ip, days 1, 5 and 9): 1.2 mg/kg; IC50 (P388 cells [4]; 50% reduction in 1 hr of 2-[14C]uridine incorporation, read-out: IC50 RNA synth): 3.2 µM; IC50 DNA/IC50 RNA (P388 cells [4]; ratio): 1.78; MTD (maximum tolerated dose) [5]: 2.0 milligram/kilogram; % ILS (B16 melanoma; at optimal dose): 55%; surv (survivors on day 65/total injected) (B16 melanoma; at optimal dose): 2/9; MST (range) (B16 melanoma; at optimal dose, control 29 (20-48)): 45 (33-56) days; optimal dose (B16 melanoma; ip, days 1, 5, 9): 900 μg/kg per inj; P388/S % ILS (P388/S; at optimal dose): 186%; P388/S tumor-free survivors/total on day 60 (P388/S; at optimal dose): 2/8; P388/S optimal dose (P388/S; ip, days 1, 5 and 9): 1.0 mg/kg; MED (minimum effective dose) (P388 Leukemia): 0.20 milligram/kilogram
